Measured values reported in ChEMBL document CHEMBL1129027, “4'-Methyl derivatives of 5-MOP and 5-MOA: synthesis, photoreactivity, and photobiological activity” (J Med Chem, 1996).
Calls of active or inactive are those of the source. The rule behind the calls is not given here.

Key:
A-431 = experiment: Compound was evaluated for cell growth inhibition against A 431 cell line by irradiation in the presence of examined compound; assay type: functional, cell-based; settings: Homo sapiens, A-431, light or radiation study
Nucleic Acid [1] = experiment: Binding parameters of complexes between compound and DNA; assay type: nucleic-acid assay; settings: Bos taurus
Nucleic Acid [2] = experiment: Rate constant of the photoreaction between compound and DNA; assay type: nucleic-acid assay; settings: Bos taurus
Cavia porcellus [3] = species: Cavia porcellus; experiment: Compound was tested for skin photosensitizing potency in guinea pig, after exposure to 50 microg cm e-2,and 20 kJ m e-2 of UVA; Absent; assay type: functional, organism-based
HL-60 = experiment: Compound was evaluated for cell growth inhibition against HL 60 cell line by irradiation in the presence of examined compound; assay type: functional, cell-based; settings: Homo sapiens, HL-60, light or radiation study
HeLa = experiment: Compound was evaluated for cell growth inhibition against HeLa cell line by irradiation in the presence of examined compound; assay type: functional, cell-based; settings: Homo sapiens, light or radiation study
Cavia porcellus [4] = experiment: Compound was tested for skin photosensitizing potency in guinea pig, after exposure to 50 microg cm e-2,and 20 kJ m e-2 of UVA; strong(with edema); assay type: functional, organism-based
Cavia porcellus [5] = species: Cavia porcellus; experiment: Compound was tested for skin photosensitizing potency in guinea pig, after exposure to 50 microg cm e-2,and 20 kJ m e-2 of UVA; Medium; assay type: functional, organism-based

Row | Structure (SMILES) | IC50 (A-431) [µM] | K (Nucleic Acid [1]) [M⁻¹] | Rate constant (Nucleic Acid [2]) [min⁻¹] | Formation of erythema (Cavia porcellus [3]) | IC50 (HL-60) [µM] | IC50 (HeLa) [µM] | Formation of erythema (Cavia porcellus [4]) | Formation of erythema (Cavia porcellus [5])
1 | COc1cc2occ(C)c2c2oc(=O)cc(C)c12 | 1.32 | 3700 | 2.2 | inactive | 0.69 | 1.26 | – | –
2 | COc1c2c(C)coc2cc2oc(=O)cc(C)c12 | 1.35 | 630 | 2.1 | inactive | 0.67 | 1.76 | – | –
3 | COc1cc2occ(C)c2c2oc(=O)c(C)cc12 | 1.37 | 3100 | 0.17 | inactive | 0.59 | 1.06 | – | –
4 | COc1c2occc2cc2ccc(=O)oc12 [METHOXSALEN] | 2.48 | – | – | – | 0.75 | 3.16 | Active | –
5 | COc1c2cc(C)c(=O)oc2cc2occ(C)c12 | 7.75 | 920 | 0.32 | – | 2.72 | 6.83 | – | Medium
6 | COc1cc2occc2c2oc(=O)ccc12 [ISOBERGAPTENE] | 7.72 | – | – | inactive | > 10 | > 10 | – | –
